Measurements from publication PMC12136037, “Type II kinase inhibitors that target Parkinson’s disease–associated LRRK2” (Science Advances, 2025).
Where two headings read alike, the source gives them in different places.

Key:
Test in all cases: DSF 100 kinase selectivity screen;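 also: compound tested at 20 µM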
Type in all cases: binding
[1] = target: T1, ~100 representative kinases (Homo sapiens, UniProt Q00536)
T1 construct: Recombinant protein kinase domains with a concentration of 2 μM
In short: (§1)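 Each kinase domain, at 2 μM, is mixed with 20 μM test compound and SYPRO Orange in Hepes (20 mM, pH 7.5) with 500 mM NaCl. Temperature is then raised at 3°C/min and fluorescence-monitored unfolding yields the melting temperature change, ΔTm in degrees Celsius.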

[2] = target: T2, ~100 representative kinases (Homo sapiens, UniProt O14733); conditions: protein MAP2K7; average of three replicates
T2 construct: Recombinant protein kinase domains with a concentration of 2 μM
T2 sequence (O14733 1-419): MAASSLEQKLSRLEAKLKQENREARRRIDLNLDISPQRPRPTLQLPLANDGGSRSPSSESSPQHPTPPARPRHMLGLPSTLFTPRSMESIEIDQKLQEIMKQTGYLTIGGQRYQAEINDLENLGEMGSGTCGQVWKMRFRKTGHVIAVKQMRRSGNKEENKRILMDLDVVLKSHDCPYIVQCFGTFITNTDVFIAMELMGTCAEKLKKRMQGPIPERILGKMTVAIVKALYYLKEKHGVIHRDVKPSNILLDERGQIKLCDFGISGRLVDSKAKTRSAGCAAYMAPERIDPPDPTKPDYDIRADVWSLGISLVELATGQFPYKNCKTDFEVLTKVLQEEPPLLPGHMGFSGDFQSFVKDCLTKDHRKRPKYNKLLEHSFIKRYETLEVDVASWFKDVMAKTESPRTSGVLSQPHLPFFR
In short: as §1

[3] = target: T3, ~100 representative kinases (Homo sapiens, UniProt P16083); conditions: protein NQO2; average of three replicates
T3 construct: Recombinant protein kinase domains with a concentration of 2 μM
T3 sequence (P16083 1-231): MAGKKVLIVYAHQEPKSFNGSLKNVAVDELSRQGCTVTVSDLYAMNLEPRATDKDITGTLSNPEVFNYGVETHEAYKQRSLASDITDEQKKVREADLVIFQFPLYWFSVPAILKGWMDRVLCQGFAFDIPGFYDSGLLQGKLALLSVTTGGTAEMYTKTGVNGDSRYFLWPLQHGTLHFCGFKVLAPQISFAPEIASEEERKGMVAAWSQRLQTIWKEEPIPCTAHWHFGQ
In short: as §1

[4] = target: T4, ~100 representative kinases (Homo sapiens, UniProt O14965); conditions: Protein STK6; DSF; average of three replicates
T4 construct: Recombinant protein kinase domains with a concentration of 2 μM
T4 sequence (O14965 1-403): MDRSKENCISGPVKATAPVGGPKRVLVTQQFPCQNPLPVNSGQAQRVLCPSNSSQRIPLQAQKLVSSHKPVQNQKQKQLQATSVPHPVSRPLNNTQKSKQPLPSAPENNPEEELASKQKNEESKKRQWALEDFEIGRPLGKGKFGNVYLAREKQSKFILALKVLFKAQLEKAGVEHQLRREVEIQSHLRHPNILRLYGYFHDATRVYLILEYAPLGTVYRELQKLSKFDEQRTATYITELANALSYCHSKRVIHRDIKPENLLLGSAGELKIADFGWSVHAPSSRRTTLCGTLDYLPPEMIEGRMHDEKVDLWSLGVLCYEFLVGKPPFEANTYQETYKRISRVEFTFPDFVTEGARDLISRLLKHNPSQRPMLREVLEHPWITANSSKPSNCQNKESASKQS
In short: as §1

[5] = target: T5, ~100 representative kinases (Homo sapiens, UniProt P29317); conditions: Protein EPHA2; average of three replicates
T5 construct: Recombinant protein kinase domains with a concentration of 2 μM
T5 sequence (P29317 24-976): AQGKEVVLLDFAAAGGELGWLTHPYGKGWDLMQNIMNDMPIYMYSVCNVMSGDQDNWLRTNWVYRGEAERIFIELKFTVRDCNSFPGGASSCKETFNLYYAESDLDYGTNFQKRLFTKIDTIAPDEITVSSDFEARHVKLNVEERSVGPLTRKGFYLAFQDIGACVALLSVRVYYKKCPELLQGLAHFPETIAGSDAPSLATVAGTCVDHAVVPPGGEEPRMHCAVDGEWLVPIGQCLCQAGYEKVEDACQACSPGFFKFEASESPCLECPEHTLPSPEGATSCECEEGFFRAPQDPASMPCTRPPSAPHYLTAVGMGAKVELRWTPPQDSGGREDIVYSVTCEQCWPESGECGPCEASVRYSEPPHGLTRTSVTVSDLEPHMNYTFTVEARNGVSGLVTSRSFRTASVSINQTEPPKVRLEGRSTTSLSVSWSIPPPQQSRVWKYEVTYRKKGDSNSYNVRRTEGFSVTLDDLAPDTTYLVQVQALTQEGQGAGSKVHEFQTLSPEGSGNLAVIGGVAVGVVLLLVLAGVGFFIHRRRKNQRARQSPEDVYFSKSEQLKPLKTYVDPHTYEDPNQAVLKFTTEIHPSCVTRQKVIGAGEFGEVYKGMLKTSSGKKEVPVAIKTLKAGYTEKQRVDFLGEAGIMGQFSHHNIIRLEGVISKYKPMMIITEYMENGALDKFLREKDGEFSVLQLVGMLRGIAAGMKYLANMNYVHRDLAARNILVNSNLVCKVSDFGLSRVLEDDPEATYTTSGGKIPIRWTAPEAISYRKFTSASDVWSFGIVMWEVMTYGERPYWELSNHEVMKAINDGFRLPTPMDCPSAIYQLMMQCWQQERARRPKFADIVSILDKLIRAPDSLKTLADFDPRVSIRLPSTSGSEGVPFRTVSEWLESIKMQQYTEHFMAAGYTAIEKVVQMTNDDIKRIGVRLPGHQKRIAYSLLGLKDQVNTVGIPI
In short: as §1

[6] = target: T6, ~100 representative kinases (Homo sapiens, UniProt P54756); conditions: Protein EPHA5; average of three replicates
T6 construct: Recombinant protein kinase domains with a concentration of 2 μM
T6 sequence (P54756 25-1037): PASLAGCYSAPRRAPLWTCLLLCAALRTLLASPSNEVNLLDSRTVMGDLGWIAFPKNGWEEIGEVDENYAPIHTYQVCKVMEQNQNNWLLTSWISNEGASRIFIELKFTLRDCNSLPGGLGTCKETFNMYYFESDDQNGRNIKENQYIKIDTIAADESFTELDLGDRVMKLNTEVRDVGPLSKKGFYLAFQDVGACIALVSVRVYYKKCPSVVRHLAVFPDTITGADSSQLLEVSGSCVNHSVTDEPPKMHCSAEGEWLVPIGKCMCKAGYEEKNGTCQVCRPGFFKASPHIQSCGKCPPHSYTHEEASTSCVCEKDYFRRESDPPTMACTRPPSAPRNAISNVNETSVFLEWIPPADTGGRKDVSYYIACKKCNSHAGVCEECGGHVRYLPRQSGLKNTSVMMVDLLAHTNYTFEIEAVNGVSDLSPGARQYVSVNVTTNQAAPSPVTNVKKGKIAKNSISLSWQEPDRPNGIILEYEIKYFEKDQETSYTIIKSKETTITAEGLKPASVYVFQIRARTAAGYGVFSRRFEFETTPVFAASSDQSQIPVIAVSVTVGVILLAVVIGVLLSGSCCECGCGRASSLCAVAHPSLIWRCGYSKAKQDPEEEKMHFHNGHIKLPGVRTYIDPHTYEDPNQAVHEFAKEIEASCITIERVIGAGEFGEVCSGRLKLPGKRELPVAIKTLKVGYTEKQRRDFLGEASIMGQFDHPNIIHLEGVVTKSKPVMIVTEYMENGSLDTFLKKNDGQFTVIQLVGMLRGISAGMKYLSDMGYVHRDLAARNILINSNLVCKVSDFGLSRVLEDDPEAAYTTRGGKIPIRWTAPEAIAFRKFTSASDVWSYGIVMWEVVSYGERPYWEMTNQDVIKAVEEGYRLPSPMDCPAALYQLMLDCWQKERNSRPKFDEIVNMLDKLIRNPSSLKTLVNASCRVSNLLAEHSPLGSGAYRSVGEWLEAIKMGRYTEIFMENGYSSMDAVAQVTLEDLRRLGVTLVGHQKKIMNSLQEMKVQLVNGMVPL
In short: as §1

[7] = target: T7, ~100 representative kinases (Homo sapiens, UniProt P54762); conditions: Protein EPHB1; average of three replicates
T7 construct: Recombinant protein kinase domains with a concentration of 2 μM
T7 sequence (P54762 18-984): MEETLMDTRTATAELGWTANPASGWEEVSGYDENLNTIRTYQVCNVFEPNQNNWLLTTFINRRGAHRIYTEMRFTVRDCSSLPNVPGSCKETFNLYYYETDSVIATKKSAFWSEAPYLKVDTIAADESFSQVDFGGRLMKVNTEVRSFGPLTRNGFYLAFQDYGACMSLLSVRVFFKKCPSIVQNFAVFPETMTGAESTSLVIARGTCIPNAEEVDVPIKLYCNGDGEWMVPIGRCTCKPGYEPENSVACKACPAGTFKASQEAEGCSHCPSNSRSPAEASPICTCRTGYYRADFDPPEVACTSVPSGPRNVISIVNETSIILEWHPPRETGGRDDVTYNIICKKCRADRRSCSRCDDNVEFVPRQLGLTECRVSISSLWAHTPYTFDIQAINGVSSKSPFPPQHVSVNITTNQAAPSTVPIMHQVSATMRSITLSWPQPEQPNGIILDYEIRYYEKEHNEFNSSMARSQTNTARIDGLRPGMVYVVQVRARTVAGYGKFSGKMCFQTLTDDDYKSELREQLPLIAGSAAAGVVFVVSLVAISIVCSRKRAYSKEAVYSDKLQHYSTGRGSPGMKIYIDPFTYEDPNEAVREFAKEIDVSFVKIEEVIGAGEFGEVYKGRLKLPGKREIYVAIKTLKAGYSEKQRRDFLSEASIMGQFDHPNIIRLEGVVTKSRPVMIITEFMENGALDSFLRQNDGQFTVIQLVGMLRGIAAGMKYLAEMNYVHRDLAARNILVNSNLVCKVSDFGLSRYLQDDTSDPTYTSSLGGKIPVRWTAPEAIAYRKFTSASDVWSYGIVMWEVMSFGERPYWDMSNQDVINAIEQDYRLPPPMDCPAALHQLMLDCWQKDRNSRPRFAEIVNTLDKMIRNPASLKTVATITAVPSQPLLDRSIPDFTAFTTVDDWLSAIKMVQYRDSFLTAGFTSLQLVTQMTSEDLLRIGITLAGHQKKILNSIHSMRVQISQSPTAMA
In short: as §1

[8] = target: T8, ~100 representative kinases (Homo sapiens, UniProt Q8IU85); conditions: Protein CAMK1D; average of three replicates
T8 construct: Recombinant protein kinase domains with a concentration of 2 μM
T8 sequence (Q8IU85 whole entry, the tested form may be a part): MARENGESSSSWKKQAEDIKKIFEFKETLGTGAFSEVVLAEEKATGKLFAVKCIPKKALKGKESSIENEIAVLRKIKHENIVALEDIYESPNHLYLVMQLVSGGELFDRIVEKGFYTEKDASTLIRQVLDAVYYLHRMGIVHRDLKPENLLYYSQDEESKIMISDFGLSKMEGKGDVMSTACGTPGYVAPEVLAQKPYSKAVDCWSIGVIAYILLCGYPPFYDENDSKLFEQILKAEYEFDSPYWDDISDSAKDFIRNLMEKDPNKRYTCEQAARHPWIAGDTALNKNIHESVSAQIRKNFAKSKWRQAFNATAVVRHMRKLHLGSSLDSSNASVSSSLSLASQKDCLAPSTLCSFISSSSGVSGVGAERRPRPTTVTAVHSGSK
In short: as §1

[9] = target: T9, ~100 representative kinases (Homo sapiens, UniProt Q13554); conditions: Protein CAMK2B; average of three replicates
T9 construct: Recombinant protein kinase domains with a concentration of 2 μM
T9 sequence (Q13554 whole entry, the tested form may be a part): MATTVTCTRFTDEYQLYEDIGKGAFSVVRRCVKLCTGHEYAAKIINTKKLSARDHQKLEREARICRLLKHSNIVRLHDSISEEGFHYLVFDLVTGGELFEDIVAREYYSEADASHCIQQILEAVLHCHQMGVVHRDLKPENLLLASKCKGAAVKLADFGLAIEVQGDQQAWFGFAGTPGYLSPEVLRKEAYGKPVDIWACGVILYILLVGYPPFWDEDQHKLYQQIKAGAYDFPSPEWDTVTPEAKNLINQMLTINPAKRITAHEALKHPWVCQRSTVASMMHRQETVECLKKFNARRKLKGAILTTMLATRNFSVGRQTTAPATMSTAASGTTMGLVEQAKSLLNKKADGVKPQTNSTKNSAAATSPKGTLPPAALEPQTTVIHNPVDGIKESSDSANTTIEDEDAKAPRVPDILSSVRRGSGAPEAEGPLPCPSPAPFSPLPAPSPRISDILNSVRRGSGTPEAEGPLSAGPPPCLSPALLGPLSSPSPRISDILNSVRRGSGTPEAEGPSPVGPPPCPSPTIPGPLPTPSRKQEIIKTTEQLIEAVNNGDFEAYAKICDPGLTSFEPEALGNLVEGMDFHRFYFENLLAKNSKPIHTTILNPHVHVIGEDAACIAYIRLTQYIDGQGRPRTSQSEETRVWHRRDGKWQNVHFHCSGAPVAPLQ
In short: as §1

[10] = protein PCTK1, average of three replicates

T1 sequence (Q00536 whole entry, the tested form may be a part): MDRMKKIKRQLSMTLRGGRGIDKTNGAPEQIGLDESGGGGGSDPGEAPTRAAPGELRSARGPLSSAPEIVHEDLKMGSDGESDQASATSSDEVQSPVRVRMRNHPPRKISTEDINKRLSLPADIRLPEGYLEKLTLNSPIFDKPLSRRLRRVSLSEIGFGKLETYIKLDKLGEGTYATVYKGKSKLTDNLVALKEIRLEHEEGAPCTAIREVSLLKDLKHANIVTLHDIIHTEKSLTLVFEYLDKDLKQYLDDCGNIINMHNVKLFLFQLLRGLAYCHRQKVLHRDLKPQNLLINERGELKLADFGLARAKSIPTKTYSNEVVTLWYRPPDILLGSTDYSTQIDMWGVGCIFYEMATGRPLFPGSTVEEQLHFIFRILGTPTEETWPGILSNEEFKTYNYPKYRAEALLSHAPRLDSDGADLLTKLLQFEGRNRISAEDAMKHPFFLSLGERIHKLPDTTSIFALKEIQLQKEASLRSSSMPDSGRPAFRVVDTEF

dTm [1, 10] [K]	dTm [2] [K]	dTm [3] [K]	dTm [4] [K]	dTm [5] [K]	dTm [6] [K]	dTm [7] [K]	dTm [8] [K]	dTm [9] [K]	SMILES	dTm [1] [K]
1.60	4.67	0.13	12.62	3.44	5.80	4.85	0.56	0.49	Cc1ccc(C(=O)Nc2ccc(CN3CCN(C)CC3)c(C(F)(F)F)c2)cc1C#Cc1c[nH]c2ncnc(N3CCOCC3)c12 [Compound 1]	
5.80	4.21	-0.56	6.07	6.37	3.27	3.27	-1.26	0.69	O=C(Nc1ccc(F)cc1)C1(C(=O)Nc2cccc(-c3c[nH]c4ncnc(N5CCOCC5)c34)c2)CC1 [Compound 2]	
7.66	5.76	-0.15	7.18	6.09	3.25	2.81	-1.98	0.73	O=C(Nc1cccc(-c2c[nH]c3ncnc(N4CCOCC4)c23)c1)c1cccn(-c2ccc(F)cc2)c1=O [Compound 4]	
1.12	1.34	-2.13	6.69	3.21	2.48	1.49	1.65	1.87	Cc1cc(NC(=O)C2(C(=O)Nc3ccc(F)cc3)CC2)cc(-c2c[nH]c3ncnc(N4CCOCC4)c23)c1 [Compound 6]	
3.50	4.41	-2.54	4.34	1.56	-0.41	-11.24	1.59	1.38	O=C(Nc1cccc(-c2c[nH]c3ncnc(N4CCOCC4)c23)c1)C1(C(=O)Nc2cccc3c2CCC3)CC1 [Compound 11]	
5.02	4.30	1.99	6.39	5.20	1.91	2.37	-1.41	0.82	O=C(Nc1ccccc1)C1(C(=O)Nc2cccc(-c3c[nH]c4ncnc(N5CCOCC5)c34)c2)CC1 [Compound 12]	
9.13	4.62	0.45	9.16	8.00	4.99	5.42	0.67	1.60	O=C(Nc1ccc(Cl)cc1)C1(C(=O)Nc2cccc(-c3c[nH]c4ncnc(N5CCOCC5)c34)c2)CC1 [Compound 13]	
6.61	2.82	0.0157	7.04	7.05	3.63	3.63	-1.76	0.96	Cc1ccc(NC(=O)C2(C(=O)Nc3cccc(-c4c[nH]c5ncnc(N6CCOCC6)c45)c3)CC2)cc1 [Compound 14]	
9.05	3.12	0.0657	9.54	4.88	2.15	3.72	-1.11	1.13	CCc1ccc(NC(=O)C2(C(=O)Nc3cccc(-c4c[nH]c5ncnc(N6CCOCC6)c45)c3)CC2)cc1 [Compound 15]	
5.58	0.55	-0.51	5.48	1.72	-0.30	0.79	-1.41	0.11	COc1ccc(NC(=O)C2(C(=O)Nc3cccc(-c4c[nH]c5ncnc(N6CCOCC6)c45)c3)CC2)cc1 [Compound 16]	
0.61	-0.22		3.65	0.40	-0.45	0.07	-0.16	0.10	CCNc1nc(Nc2cc(F)c(C(=O)N3CCOCC3)cc2OC)ncc1C(F)(F)F [GNE-7915]	

SMILES	dTm [1, 10] [K]	dTm [2] [K]	dTm [3] [K]	dTm [4] [K]	dTm [5] [K]	dTm [6] [K]	dTm [7] [K]	dTm [8] [K]	dTm [9] [K]	dTm [1] [K]
COc1cc2c(Oc3ccc(NC(=O)C4(C(=O)Nc5ccc(F)cc5)CC4)cc3F)ccnc2cc1OCCCN1CCOCC1 [Foretinib, reference compound]			0.08			11.59	12.70	0.45	0.83	4.52
Cc1ccc(C(=O)Nc2ccc(CN3CCN(C)CC3)c(C(F)(F)F)c2)cc1C#Cc1cnc2[nH]ncc2c1 [GZD-824, reference compound]	3.06	4.88		3.67	17.23	14.58	14.98	-0.60	0.11	
C[C@@H]1CN(c2cc(-c3n[nH]c4ccc(OC5(C)CC5)cc34)ncn2)C[C@H](C)O1 [MLi2]	-0.14	-0.41		0.17	0.27	-0.96	-0.37	2.16	1.04	
Cn1cc(-c2c[nH]c3ncnc(N4CCOCC4)c23)cc1C#N [PFE-360]	0.35	0.37		8.08	0.68	-0.69	-0.08	-1.69	0.00751	
Cc1ccc(C(=O)Nc2ccc(CN3CCN(C)CC3)c(C(F)(F)F)c2)cc1C#Cc1cnc2cccnn12 [Ponatinib, reference compound]				1.61	16.48					
CN[C@@H]1C[C@H]2O[C@@](C)([C@@H]1OC)n1c3ccccc3c3c4c(c5c6ccccc6n2c5c31)C(=O)NC4 [Staurosporine]		7.05		20.49						
